From patent publication US8883228B2, “Composition for heart disease, its active ingredients, method to prepare same and uses thereof” (Tasly Pharmaceutical Group Co. Ltd., priority 2003, dated 2014)

What was measured:
[1] = tested on: angina caused by coronary heart disease; experiment: Senior group angina, comparative analysis of DSP and Nifedipine; format: in vivo, human; settings: treatment of angina caused by coronary heart disease
Protocol: Both DSP and Nifedipine can treat angina caused by coronary heart disease, but the latter has side effects which are not suitable for long-term use. In order to choose suitable drugs for patients with a need for long-term treatment of coronary heart disease, a comparative analysis of DSP and Nifedipine in the treatment of angina caused by coronary heart disease was carried out. DSP is made for angina. It activates blood circulation and relieves pain efficiently. […] Nifedipine is a short-term-effective calcium antagonist with a short half-life and functional time, so angina may occur during medication. […] Many reports state that long-term treatment with Nifedipine is harmful to coronary arteries. DSP can prevent decreased blood flow to the cardiac muscles and the development of atherosclerosis.

[2] = tested on: Wistar rat's artificial heart; experiment: Cardiac arrhythmia caused by exogenous free radicals, Langendorff perfusion; settings: 1 mg/L; ferrous sulfate/citrate free radicals alone up to 100%
From the text: Langendorff perfusion device was used to pour ferrous sulfate (0.25 mmol/L)/citrate (1.0 mmol/L) into the Wistar rat's artificial heart. The model of free radicals causing heart rhythm irregularity was replicated to observe the effects of DSP.

[3] = tested on: chronic pulmonary heart disease; experiment: Healing effect on chronic pulmonary heart disease; format: in vivo, human; settings: treatment group versus control group
From the text: The total efficacy rate of treatment group is 95% and that of the control group 76%, the difference of which is statistically significant (P[…]0.05). […] There was a significant difference in the efficacy of the two groups (X^2=4.46 and 4.95, P[…]0.05). […] There were obvious changes in blood flow in the Treatment group before and after treatment compared with that of the Control group (P[…]0.05). The blood viscosity of the control group decreased after treatment, but there was no statistical deviation.

vegetative nerve balance = experiment: Adjustment of vegetative nerve, heart rate variation (HRV); format: in vivo, human; settings: before and after treatment
From the text: This test uses “Wenger-Chongzhongchongxion” vegetative nerve balance factor analysis to test the heart rate variation (HRV), that is, the fluctuation in the average heartbeat over a certain period of time or over a long time period in the R-R period. Data, including effects on the sympathetic and para-sympathetic nerves can be calculated, to reflect the regulatory function of the vegetative nervous system. […] A decrease in HRV means the sympathetic nerve is excited. It is directly proportional to the symptoms in coronary heart disease and the possibility of sudden death and irregularity of heartbeat. DSP can control over-excitement of the […] nerve and regulate the balance in the vegetative nerve.

COC(=O)C1=C(C)NC(C)=C(C(=O)OC)C1c1ccccc1[N+](=O)[O-] [Nifedipine]
side effects [1]: many side effects

COc1ccc(CCN(C)CCCC(C#N)(c2ccc(OC)c(OC)c2)C(C)C)cc1OC (centres unmarked) [verapamil]
irregularity percentage (cardiac arrhythmia) [2]: 71.4%

OCCN(CCO)c1nc(N2CCCCC2)c2nc(N(CCO)CCO)nc(N3CCCCC3)c2n1 [persantin]
total efficacy rate [3]: 76%

O=[N+]([O-])O[C@H]1CO[C@H]2[C@@H]1OC[C@H]2O[N+](=O)[O-] [Isordil]
SDNN in R-R (vegetative nerve balance): no significant difference
percentage of y>+0.56 (vegetative nerve balance factor) (vegetative nerve balance): not significant
